Patent US10597388B2, “Pyridazinone herbicides” (FMC CORPORATION, priority 2014, dated 2020)

Assays:
Assay in all cases: Test C greenhouse herbicide test, pre- and postemergence
Type in all cases: in vivo
[1] = test system: blackgrass (Alopecurus myosuroides)
Summary of the method: (§1)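 Two application timings: at sowing into a soil/sand blend, and on 2–18 cm seedlings in peat-vermiculite potting mix. A non-phytotoxic, surfactant-containing solvent carried the compounds. Plants were compared with controls and rated visually on 0–100 after 13–15 d.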

[2] = test system: pigweed (Amaranthus retroflexus)
Summary of the method: as §1

[3] = test system: galium (catchweed bedstraw, Galium aparine)
Summary of the method: as §1

[4] = test system: nutsedge, yellow (yellow nutsedge, Cyperus esculentus)
Summary of the method: as §1

[5] = test system: barnyardgrass (Echinochloa crus-galli)
Summary of the method: as §1

[6] = test system: crabgrass, large (large crabgrass, Digitaria sanguinalis)
Summary of the method: as §1

[7] = test system: foxtail, giant (giant foxtail, Setaria faberii)
Summary of the method: as §1

[8] = test system: waterhemp (common waterhemp, Amaranthus rudis)
Summary of the method: as §1

[9] = test system: morningglory (Ipomoea coccinea)
Summary of the method: as §1

[10] = test system: soybean (Glycine max)
Summary of the method: as §1

[11] = test system: oilseed rape (Brassica napus)
Summary of the method: as §1

[12] = test system: lambsquarters (Chenopodium album)
Summary of the method: as §1

[13] = test system: wheat (winter wheat, Triticum aestivum)
Summary of the method: as §1

[14] = test system: ragweed (common ragweed, Ambrosia elatior)
Summary of the method: as §1

[15] = test system: johnsongrass (Sorghum halepense)
Summary of the method: as §1

[16] = test system: velvetleaf (Abutilon theophrasti)
Summary of the method: as §1

[17] = Postemergence, 31 g ai/ha, 0 to 100 scale (0 no effect, 100 complete control)
[18] = Postemergence, 125 g ai/ha, scale 0 to 100, 0 is no effect, 100 is complete control
[19] = Postemergence, 250 g ai/ha, scale 0 to 100, 0 no effect, 100 complete control, 13 to 15 d
[20] = Preemergence, 31 g ai/ha, scale 0 to 100, 0 is no effect, 100 is complete control
[21] = Preemergence, 62 g ai/ha, scale 0 to 100, 0 is no effect, 100 is complete control
[22] = Preemergence, 125 g ai/ha, scale 0 to 100, 0 is no effect, 100 is complete control
[23] = Preemergence, 250 g ai/ha, scale 0 to 100 (0 no effect, 100 complete control)
[24] = postemergence, 62 g ai/ha, scale 0 to 100, 0 no effect, 100 complete control

Cc1ccc2ccc(C)c(-c3c(O)c(C)nn(C)c3=O)c2c1 [Compound 60]
Blackgrass plant response rating [1, 17]: 50 | Plant response rating, Blackgrass [1, 18]: 85 | Plant response rating, Blackgrass [1, 19]: 90 | Plant response rating, Blackgrass [1, 20]: 90 | Plant response rating, Blackgrass [1, 21]: 90 | Plant response rating, Blackgrass [1, 22]: 90 | Blackgrass plant response rating [1, 23]: 90 | Blackgrass plant response rating [1, 24]: 60 | Pigweed plant response rating [2, 17]: 85 | Plant response rating, Pigweed [2, 18]: 95 | Plant response rating, Pigweed [2, 19]: 98 | Plant response rating, Pigweed [2, 20]: 100 | Plant response rating, Pigweed [2, 21]: 100 | Plant response rating, Pigweed [2, 22]: 100 | Pigweed plant response rating [2, 23]: 100 | Pigweed plant response rating [2, 24]: 85 | Galium plant response rating [3, 17]: 100 | Plant response rating, Galium [3, 18]: 100 | Plant response rating, Galium [3, 19]: 100 | Plant response rating, Galium [3, 20]: 90 | Plant response rating, Galium [3, 21]: 95 | Plant response rating, Galium [3, 22]: 98 | Galium plant response rating [3, 23]: 100 | Galium plant response rating [3, 24]: 100 | Nutsedge, Yellow plant response rating [4, 17]: 85 | Plant response rating, Nutsedge, Yellow [4, 18]: 90 | Plant response rating, Nutsedge, Yellow [4, 19]: 95 | Plant response rating, Nutsedge, Yellow [4, 20]: 45 | Plant response rating, Nutsedge, Yellow [4, 21]: 45 | Plant response rating, Nutsedge, Yellow [4, 22]: 85 | Nutsedge, Yellow plant response rating [4, 23]: 85 | Nutsedge, Yellow plant response rating [4, 24]: 85 | Barnyardgrass plant response rating [5, 17]: 20 | Plant response rating, Barnyardgrass [5, 18]: 35 | Plant response rating, Barnyardgrass [5, 19]: 65 | Plant response rating, Barnyardgrass [5, 20]: 10 | Plant response rating, Barnyardgrass [5, 21]: 40 | Plant response rating, Barnyardgrass [5, 22]: 85 | Barnyardgrass plant response rating [5, 23]: 90 | Barnyardgrass plant response rating [5, 24]: 25 | Crabgrass, Large plant response rating [6, 17]: 15 | Plant response rating, Crabgrass, Large [6, 18]: 50 | Plant response rating, Crabgrass, Large [6, 19]: 65 | Plant response rating, Crabgrass, Large [6, 20]: 20 | Plant response rating, Crabgrass, Large [6, 21]: 75 | Plant response rating, Crabgrass, Large [6, 22]: 85 | Crabgrass, Large plant response rating [6, 23]: 95 | Crabgrass, Large plant response rating [6, 24]: 35 | Foxtail, Giant plant response rating [7, 17]: 45 | Plant response rating, Foxtail, Giant [7, 18]: 70 | Plant response rating, Foxtail, Giant [7, 19]: 90 | Plant response rating, Foxtail, Giant [7, 20]: 75 | Plant response rating, Foxtail, Giant [7, 21]: 85 | Plant response rating, Foxtail, Giant [7, 22]: 100 | Foxtail, Giant plant response rating [7, 23]: 100 | Foxtail, Giant plant response rating [7, 24]: 60 | Waterhemp plant response rating [8, 17]: 65 | Plant response rating, Waterhemp [8, 18]: 98 | Plant response rating, Waterhemp [8, 19]: 98 | Plant response rating, Waterhemp [8, 20]: 100 | Plant response rating, Waterhemp [8, 21]: 100 | Plant response rating, Waterhemp [8, 22]: 100 | Waterhemp plant response rating [8, 23]: 100 | Waterhemp plant response rating [8, 24]: 90 | Morningglory plant response rating [9, 17]: 90 | Plant response rating, Morningglory [9, 18]: 100 | Plant response rating, Morningglory [9, 19]: 100 | Plant response rating, Morningglory [9, 20]: 85 | Plant response rating, Morningglory [9, 21]: 98 | Plant response rating, Morningglory [9, 22]: 98 | Morningglory plant response rating [9, 23]: 100 | Morningglory plant response rating [9, 24]: 98 | Soybean plant response rating [10, 17]: 15 | Plant response rating, Soybean [10, 18]: 40 | Plant response rating, Soybean [10, 19]: 50 | Plant response rating, Soybean [10, 20]: 0 | Plant response rating, Soybean [10, 21]: 45 | Plant response rating, Soybean [10, 22]: 65 | Soybean plant response rating [10, 23]: 75 | Soybean plant response rating [10, 24]: 20 | Oilseed Rape plant response rating [11, 17]: 5 | Plant response rating, Oilseed Rape [11, 18]: 85 | Plant response rating, Oilseed Rape [11, 19]: 80 | Plant response rating, Oilseed Rape [11, 20]: 30 | Plant response rating, Oilseed Rape [11, 21]: 85 | Plant response rating, Oilseed Rape [11, 22]: 90 | Oilseed Rape plant response rating [11, 23]: 90 | Oilseed Rape plant response rating [11, 24]: 5 | Lambsquarters plant response rating [12, 17]: 85 | Plant response rating, Lambsquarters [12, 18]: 95 | Plant response rating, Lambsquarters [12, 19]: 100 | Plant response rating, Lambsquarters [12, 20]: 80 | Plant response rating, Lambsquarters [12, 21]: 85 | Plant response rating, Lambsquarters [12, 22]: 95 | Lambsquarters plant response rating [12, 23]: 90 | Lambsquarters plant response rating [12, 24]: 90 | Wheat plant response rating [13, 17]: 5 | Plant response rating, Wheat [13, 18]: 30 | Plant response rating, Wheat [13, 19]: 15 | Plant response rating, Wheat [13, 20]: 10 | Plant response rating, Wheat [13, 21]: 40 | Plant response rating, Wheat [13, 22]: 45 | Wheat plant response rating [13, 23]: 70 | Wheat plant response rating [13, 24]: 5 | Ragweed plant response rating [14, 17]: 85 | Plant response rating, Ragweed [14, 18]: 98 | Plant response rating, Ragweed [14, 19]: 100 | Plant response rating, Ragweed [14, 20]: 80 | Plant response rating, Ragweed [14, 21]: 90 | Plant response rating, Ragweed [14, 22]: 95 | Ragweed plant response rating [14, 23]: 95 | Ragweed plant response rating [14, 24]: 90 | Johnsongrass plant response rating [15, 17]: 5 | Plant response rating, Johnsongrass [15, 18]: 55 | Plant response rating, Johnsongrass [15, 19]: 45 | Plant response rating, Johnsongrass [15, 20]: 5 | Plant response rating, Johnsongrass [15, 21]: 20 | Plant response rating, Johnsongrass [15, 22]: 40 | Johnsongrass plant response rating [15, 23]: 60 | Johnsongrass plant response rating [15, 24]: 35 | Velvetleaf plant response rating [16, 17]: 40 | Plant response rating, Velvetleaf [16, 18]: 90 | Plant response rating, Velvetleaf [16, 19]: 95 | Plant response rating, Velvetleaf [16, 20]: 75 | Plant response rating, Velvetleaf [16, 21]: 85 | Plant response rating, Velvetleaf [16, 22]: 95 | Velvetleaf plant response rating [16, 23]: 98 | Velvetleaf plant response rating [16, 24]: 85

Cc1nn(C)c(=O)c(-c2c(C)sc3ccccc23)c1O [Compound 65]
Blackgrass plant response rating [1, 17]: 5 | Plant response rating, Blackgrass [1, 18]: 10 | Plant response rating, Blackgrass [1, 19]: 40 | Blackgrass plant response rating [1, 24]: 5 | Pigweed plant response rating [2, 17]: 90 | Plant response rating, Pigweed [2, 18]: 98 | Plant response rating, Pigweed [2, 19]: 100 | Pigweed plant response rating [2, 24]: 90 | Galium plant response rating [3, 17]: 85 | Plant response rating, Galium [3, 18]: 90 | Plant response rating, Galium [3, 19]: 90 | Galium plant response rating [3, 24]: 85 | Nutsedge, Yellow plant response rating [4, 17]: 25 | Plant response rating, Nutsedge, Yellow [4, 18]: 60 | Plant response rating, Nutsedge, Yellow [4, 19]: 65 | Nutsedge, Yellow plant response rating [4, 24]: 50 | Barnyardgrass plant response rating [5, 17]: 10 | Plant response rating, Barnyardgrass [5, 18]: 35 | Plant response rating, Barnyardgrass [5, 19]: 50 | Barnyardgrass plant response rating [5, 24]: 15 | Crabgrass, Large plant response rating [6, 17]: 5 | Plant response rating, Crabgrass, Large [6, 18]: 20 | Plant response rating, Crabgrass, Large [6, 19]: 25 | Crabgrass, Large plant response rating [6, 24]: 20 | Foxtail, Giant plant response rating [7, 17]: 10 | Plant response rating, Foxtail, Giant [7, 18]: 35 | Plant response rating, Foxtail, Giant [7, 19]: 60 | Foxtail, Giant plant response rating [7, 24]: 20 | Waterhemp plant response rating [8, 17]: 60 | Plant response rating, Waterhemp [8, 18]: 75 | Plant response rating, Waterhemp [8, 19]: 85 | Waterhemp plant response rating [8, 24]: 75 | Morningglory plant response rating [9, 17]: 75 | Plant response rating, Morningglory [9, 18]: 95 | Plant response rating, Morningglory [9, 19]: 95 | Morningglory plant response rating [9, 24]: 85 | Soybean plant response rating [10, 17]: 5 | Plant response rating, Soybean [10, 18]: 5 | Plant response rating, Soybean [10, 19]: 10 | Soybean plant response rating [10, 24]: 5 | Oilseed Rape plant response rating [11, 17]: 0 | Plant response rating, Oilseed Rape [11, 18]: 0 | Plant response rating, Oilseed Rape [11, 19]: 5 | Oilseed Rape plant response rating [11, 24]: 0 | Lambsquarters plant response rating [12, 17]: 90 | Plant response rating, Lambsquarters [12, 18]: 95 | Plant response rating, Lambsquarters [12, 19]: 100 | Lambsquarters plant response rating [12, 24]: 95 | Wheat plant response rating [13, 17]: 0 | Plant response rating, Wheat [13, 18]: 0 | Plant response rating, Wheat [13, 19]: 0 | Wheat plant response rating [13, 24]: 0 | Ragweed plant response rating [14, 17]: 55 | Plant response rating, Ragweed [14, 18]: 80 | Plant response rating, Ragweed [14, 19]: 90 | Ragweed plant response rating [14, 24]: 85 | Johnsongrass plant response rating [15, 17]: 5 | Plant response rating, Johnsongrass [15, 18]: 5 | Plant response rating, Johnsongrass [15, 19]: 5 | Johnsongrass plant response rating [15, 24]: 5 | Velvetleaf plant response rating [16, 17]: 10 | Plant response rating, Velvetleaf [16, 18]: 65 | Plant response rating, Velvetleaf [16, 19]: 75 | Velvetleaf plant response rating [16, 24]: 20
